Read-outs that look alike come from different tables or passages of the source.
Experiments:
[1] = target: T1, human recombinant ETB receptors (Homo sapiens, UniProt P24530); test: Inhibition of [125I]ET-1 binding to membranes from CHO cells carrying human ETB receptors
T1 construct: expressed in transfected cells; host or cells: CHO cells (microsomal membranes)
T1 sequence (P24530 27-442): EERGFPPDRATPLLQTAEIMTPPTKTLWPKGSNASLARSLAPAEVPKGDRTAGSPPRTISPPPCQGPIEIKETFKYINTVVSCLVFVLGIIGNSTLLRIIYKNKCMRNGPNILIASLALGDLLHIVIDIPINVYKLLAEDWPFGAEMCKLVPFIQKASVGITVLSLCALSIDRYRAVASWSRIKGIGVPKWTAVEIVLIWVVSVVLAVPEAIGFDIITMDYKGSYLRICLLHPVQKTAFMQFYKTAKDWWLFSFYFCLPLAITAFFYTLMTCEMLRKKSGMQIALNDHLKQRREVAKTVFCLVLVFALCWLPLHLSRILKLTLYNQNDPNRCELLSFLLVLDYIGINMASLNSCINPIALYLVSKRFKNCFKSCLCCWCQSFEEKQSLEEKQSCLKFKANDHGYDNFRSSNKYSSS
Experimental: (§1) 1) Inhibition of Endothelin Binding to Membranes from CHO Cells Carrying Human ET Receptors
(§2) For competition binding studies, membranes of CHO cells expressing human recombinant ETA or ETB receptors were used. Microsomal membranes from recombinant CHO cells were prepared and the binding assay made as previously described (Breu V., et al, FEBS Lett 1993; 334:210).
(§3) The assay was performed in 200 uL 50 mM Tris/HCl buffer, pH 7.4, including 25 mM MnCl2, 1 mM EDTA and 0.5% (w/v) BSA in polypropylene microtiter plates. […] After 2 h, the membranes were filtered on filterplates containing GF/C filters (Unifilterplates from Canberra Packard S.A. Zürich, Switzerland). To each well, 50 uL of scintillation cocktail was added (MicroScint 20, Canberra Packard S.A. Zürich, Switzerland) and the filter plates counted in a microplate counter (TopCount, Canberra Packard S.A. Zürich, Switzerland).
(§4) All the test compounds were dissolved, diluted and added in DMSO.

[2] = target: T2, ETA receptors (Rattus norvegicus, UniProt P26684); test: Inhibition of endothelin-1-induced contractions on isolated rat aortic rings; format: cell-based
T2 construct: The thoracic aorta or trachea were excised, dissected and cut in 3-5 mm rings; from tissue; host or cells: thoracic aorta rings of adult Wistar rats, endothelium removed
T2 sequence (P26684 21-426): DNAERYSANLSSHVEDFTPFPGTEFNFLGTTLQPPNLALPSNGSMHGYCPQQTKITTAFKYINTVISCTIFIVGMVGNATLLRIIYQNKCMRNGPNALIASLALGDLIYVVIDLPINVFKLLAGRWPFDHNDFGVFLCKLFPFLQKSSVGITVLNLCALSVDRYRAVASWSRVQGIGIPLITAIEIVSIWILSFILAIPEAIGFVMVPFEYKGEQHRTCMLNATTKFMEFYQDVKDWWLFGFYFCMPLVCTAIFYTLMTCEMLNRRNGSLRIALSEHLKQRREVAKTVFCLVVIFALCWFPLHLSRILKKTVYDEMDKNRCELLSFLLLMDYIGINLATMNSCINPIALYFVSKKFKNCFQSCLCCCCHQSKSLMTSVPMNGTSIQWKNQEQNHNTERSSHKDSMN
Experimental: (§5) 2) Inhibition of Endothelin-Induced Contractions on Isolated Rat Aortic Rings (ETA Receptors) and Rat Tracheal Rings (ETB Receptors):
(§6) Adult Wistar rats were anesthetized and exsanguinated. The thoracic aorta or trachea were excised, dissected and cut in 3-5 mm rings. The endothelium/epithelium was removed by gentle rubbing of the intimal surface. Each ring was suspended in a 10 ml isolated organ bath filled with Krebs-Henseleit solution (in mM; NaCl 115, KCl 4.7, MgSO4 1.2, KH2PO4 1.5, NaHCO3 25, CaCl2 2.5, glucose 10) kept at 37° and gassed with 95% O2 and 5% CO2. The rings were connected to force transducers and isometric tension was recorded (EMKA Technologies SA, Paris, France). The rings were stretched to a resting tension of 3 g (aorta) or 2 g (trachea). […] The functional inhibitory potency of the test compound was assessed by calculating the concentration ratio, i.e. the shift to the right of the EC50 induced by different concentrations of test compound. EC50 is the concentration of endothelin needed to get a half-maximal contraction, pA2 is the negative logarithm of the antagonist concentration which induces a two-fold shift in the EC50 value.

[3] = target: T3, ETB receptors (Rattus norvegicus, UniProt P21451); test: Inhibition of sarafotoxin S6c-induced contractions on isolated rat tracheal rings; format: cell-based
T3 construct: The thoracic aorta or trachea were excised, dissected and cut in 3-5 mm rings; from tissue; host or cells: tracheal rings of adult Wistar rats, epithelium removed
T3 sequence (P21451 27-442): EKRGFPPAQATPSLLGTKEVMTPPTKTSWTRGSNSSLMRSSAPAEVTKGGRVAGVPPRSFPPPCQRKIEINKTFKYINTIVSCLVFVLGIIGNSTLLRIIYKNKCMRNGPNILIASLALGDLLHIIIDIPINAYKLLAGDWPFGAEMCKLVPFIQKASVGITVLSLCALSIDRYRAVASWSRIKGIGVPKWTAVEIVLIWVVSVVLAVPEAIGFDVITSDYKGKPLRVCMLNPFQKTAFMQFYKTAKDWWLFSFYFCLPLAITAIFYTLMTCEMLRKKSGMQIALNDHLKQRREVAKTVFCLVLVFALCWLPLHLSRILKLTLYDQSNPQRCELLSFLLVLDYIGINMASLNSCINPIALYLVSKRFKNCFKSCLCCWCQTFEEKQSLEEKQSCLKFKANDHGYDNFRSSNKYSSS
Experimental: as §5, §6

[4] = target: T4, human recombinant ETA receptors (Homo sapiens, UniProt P25101); test: Inhibition of [125I]ET-1 binding to membranes from CHO cells carrying human ETA receptors; settings: CHO cell membranes, 8 pM [125I]ET-1, 2 h at 20° C.
T4 construct: expressed in transfected cells; host or cells: CHO cells (microsomal membranes)
T4 sequence (P25101 21-427): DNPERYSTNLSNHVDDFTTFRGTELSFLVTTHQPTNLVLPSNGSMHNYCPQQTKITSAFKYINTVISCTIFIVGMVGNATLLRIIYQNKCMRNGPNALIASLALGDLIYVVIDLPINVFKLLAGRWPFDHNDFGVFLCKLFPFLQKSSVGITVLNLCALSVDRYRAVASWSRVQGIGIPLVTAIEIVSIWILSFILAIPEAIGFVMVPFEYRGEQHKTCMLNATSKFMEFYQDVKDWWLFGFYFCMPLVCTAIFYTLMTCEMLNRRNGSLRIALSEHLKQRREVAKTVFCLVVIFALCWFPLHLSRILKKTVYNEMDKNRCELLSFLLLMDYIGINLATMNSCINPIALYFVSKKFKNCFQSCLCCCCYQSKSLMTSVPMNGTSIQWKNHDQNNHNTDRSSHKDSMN
Experimental: as §1, §2, §3, §4

[5] = read-out: pA2 value ETA (converted)

Row | SMILES | IC50 [1] | Kb [2] | Kb [3] | IC50 [4] | Kb [2, 5]
1 | Cc1ccc(-c2c(NS(=O)(=O)/C=C/c3ccccc3)ncnc2OCCOc2ncc(Br)cn2)cc1 [Example 1, 2-phenyl-ethenesulfonic acid {6-[2-(5-bromo-pyrimidin-2-yloxy)-ethoxy]-5-p-tolyl-pyrimidin-4-yl}-amide] | 569 nM | 1.86 nM | 81.3 nM | 1.8 nM | –
2 | Cc1ccc(-c2c(NS(=O)(=O)/C=C/c3ccccc3)ncnc2OCCOc2ncc(Cl)cn2)cc1 [Example 14] | 841 nM | – | – | 4.75 nM | 2.14 nM
3 | Cc1ccc(-c2c(NS(=O)(=O)/C=C/c3ccccc3)ncnc2OCCOc2ncc(F)cn2)cc1 [Example 15] | 2130 nM | – | – | 18 nM | 26.9 nM
4 | O=S(=O)(/C=C/c1ccccc1)Nc1ncnc(OCCOc2ncc(Br)cn2)c1-c1ccc(Cl)cc1 [Example 43] | 408 nM | – | – | 4.6 nM | 0.851 nM
5 | Cc1ccc(-c2c(NS(=O)(=O)/C=C/c3cccs3)ncnc2OCCOc2ncc(Br)cn2)cc1 [Example 67] | 752 nM | – | – | 7.8 nM | 0.316 nM
6 | Cc1ccc(-c2c(NS(=O)(=O)/C=C/c3ccccc3)nc(-c3ccncc3)nc2OCCOc2ncc(Br)cn2)cc1 [Example 80] | 2570 nM | – | 6170 nM | 19.7 nM | 4.47 nM
7 | O=S(=O)(/C=C/c1ccccc1)Nc1ncnc(OCCOc2ncc(Br)cn2)c1-c1ccc(Br)cc1 [Example 85] | 238 nM | – | – | 3.8 nM | 0.851 nM
8 | O=S(=O)(/C=C/c1ccccc1)Nc1ncnc(OCCOc2ncc(Br)cn2)c1-c1ccccc1 [Example 92] | 7470 nM | – | – | 20 nM | 12.3 nM
9 | Cc1ccc(-c2c(NS(=O)(=O)/C=C/c3ccccc3)nc(-c3ncccn3)nc2OCCOc2ncc(Br)cn2)cc1 [Example 140] | 1090 nM | – | – | 12.5 nM | 1.86 nM
10 | COc1ccccc1Oc1c(NS(=O)(=O)/C=C/c2ccccc2)nc(-c2ncccn2)nc1OCCOc1ncccn1 [Example 152] | 4820 nM | – | 912 nM | 43.3 nM | 20.4 nM
11 | COc1ccccc1Oc1c(NS(=O)(=O)/C=C/c2cccs2)nc(-c2ccncc2)nc1OCCOc1ncc(Br)cn1 [Example 173] | 976 nM | – | 79.4 nM | 4.2 nM | 1.48 nM
12 | COc1ccccc1Oc1c(NS(=O)(=O)/C=C/c2cccs2)nc(-c2ccncc2)nc1OCCOc1ncccn1 [Example 174] | 1010 nM | – | – | 6.7 nM | 13.2 nM
13 | COc1ccccc1Oc1c(NS(=O)(=O)/C=C/c2ccccc2)nc(N2CCOCC2)nc1OCCOc1ncc(Br)cn1 [Example 193] | 537 nM | – | 126 nM | 2.6 nM | 2.51 nM
14 | COc1ccccc1Oc1c(NS(=O)(=O)/C=C/c2ccccc2)nc(N2CCOCC2)nc1OCCOc1ncccn1 [Example 194] | 627 nM | – | 316 nM | 7.8 nM | 31.6 nM
15 | COc1ccccc1Oc1c(NS(=O)(=O)/C=C/c2ccccc2)nc(N2CCOCC2)nc1OCCOc1ncc(Cl)cn1 [Example 195] | 293 nM | – | – | 6 nM | 9.12 nM
16 | COc1ccccc1Oc1c(NS(=O)(=O)/C=C/c2ccccc2)nc(N2CCOCC2)nc1OCCOc1ncc(F)cn1 [Example 196] | 427 nM | – | – | 4.7 nM | 20.9 nM
17 | COc1ccccc1Oc1c(NS(=O)(=O)/C=C/c2ccccc2)ncnc1OCCOc1ncc(Br)cn1 [Example 211] | 2640 nM | – | 224 nM | 38 nM | 24.5 nM

— patent US6951856B2, “Arylethene-sulfonamides” (Actelion Pharmaceuticals Ltd., priority 2000, dated 2005)
